Values of other authors in US20220257614A1, “USE OF 12-LIPOXYGENASE INHIBITORS IN THE TREATMENT OF COVID-19” (New York Medical College, priority 2021, published 2022).

Test system: human islets
Settings: in vitro; background statement

## COc1cccc(CNc2ccc(S(=O)(=O)Nc3nc4ccccc4s3)cc2)c1O [ML-355]
  protection of human islets from inflammatory injury: protect human islets from inflammatory injury
